Source: ChEMBL document CHEMBL3603837, “Indole Glucocorticoid Receptor Antagonists Active in a Model of Dyslipidemia Act via a Unique Association with an Agonist Binding Site” (J Med Chem, 2015)
pKi: −log10 of the molar value.

Key:
[1] = biological target: T1, Mineralocorticoid receptor (Homo sapiens, UniProt P08235); test: biochemical
T1 sequence (P08235 whole entry): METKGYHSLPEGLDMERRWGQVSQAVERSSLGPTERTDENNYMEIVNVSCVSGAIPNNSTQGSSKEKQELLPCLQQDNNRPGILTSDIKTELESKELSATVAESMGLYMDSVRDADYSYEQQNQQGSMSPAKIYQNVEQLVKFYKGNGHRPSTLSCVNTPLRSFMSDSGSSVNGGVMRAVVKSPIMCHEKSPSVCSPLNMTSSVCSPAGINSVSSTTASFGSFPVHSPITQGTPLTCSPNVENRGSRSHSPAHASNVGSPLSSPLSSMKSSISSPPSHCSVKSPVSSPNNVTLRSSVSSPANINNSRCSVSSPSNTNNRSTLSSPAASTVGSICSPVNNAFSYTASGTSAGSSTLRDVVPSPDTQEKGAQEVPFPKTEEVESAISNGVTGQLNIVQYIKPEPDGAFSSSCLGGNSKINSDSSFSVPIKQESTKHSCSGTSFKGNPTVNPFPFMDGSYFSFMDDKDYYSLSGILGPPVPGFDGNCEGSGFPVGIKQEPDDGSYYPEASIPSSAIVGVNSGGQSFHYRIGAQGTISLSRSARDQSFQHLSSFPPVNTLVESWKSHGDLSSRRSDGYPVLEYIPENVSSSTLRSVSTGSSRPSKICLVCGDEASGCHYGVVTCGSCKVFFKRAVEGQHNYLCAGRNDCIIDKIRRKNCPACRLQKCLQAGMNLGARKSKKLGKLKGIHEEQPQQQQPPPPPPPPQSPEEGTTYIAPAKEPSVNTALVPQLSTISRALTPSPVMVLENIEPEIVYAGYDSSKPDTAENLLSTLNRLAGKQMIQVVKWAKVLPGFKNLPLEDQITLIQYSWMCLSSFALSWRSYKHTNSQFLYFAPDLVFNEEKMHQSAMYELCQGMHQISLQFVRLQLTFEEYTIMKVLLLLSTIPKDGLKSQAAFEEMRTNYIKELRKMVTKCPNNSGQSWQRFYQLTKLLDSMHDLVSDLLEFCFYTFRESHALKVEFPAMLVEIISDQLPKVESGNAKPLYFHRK
Description: Displacement of [3H]-aldosterone from human mineralocorticoid receptor expressed in HEK293 cells by scintillation counting based radioligand competition binding assay

[2] = biological target: T2, Progesterone receptor (Homo sapiens, UniProt P06401); test: Displacement of [3H]-methyltrienolone from human progesterone receptor expressed in HEK293 cells by scintillation counting based radioligand competition binding assay
T2 sequence (P06401 whole entry): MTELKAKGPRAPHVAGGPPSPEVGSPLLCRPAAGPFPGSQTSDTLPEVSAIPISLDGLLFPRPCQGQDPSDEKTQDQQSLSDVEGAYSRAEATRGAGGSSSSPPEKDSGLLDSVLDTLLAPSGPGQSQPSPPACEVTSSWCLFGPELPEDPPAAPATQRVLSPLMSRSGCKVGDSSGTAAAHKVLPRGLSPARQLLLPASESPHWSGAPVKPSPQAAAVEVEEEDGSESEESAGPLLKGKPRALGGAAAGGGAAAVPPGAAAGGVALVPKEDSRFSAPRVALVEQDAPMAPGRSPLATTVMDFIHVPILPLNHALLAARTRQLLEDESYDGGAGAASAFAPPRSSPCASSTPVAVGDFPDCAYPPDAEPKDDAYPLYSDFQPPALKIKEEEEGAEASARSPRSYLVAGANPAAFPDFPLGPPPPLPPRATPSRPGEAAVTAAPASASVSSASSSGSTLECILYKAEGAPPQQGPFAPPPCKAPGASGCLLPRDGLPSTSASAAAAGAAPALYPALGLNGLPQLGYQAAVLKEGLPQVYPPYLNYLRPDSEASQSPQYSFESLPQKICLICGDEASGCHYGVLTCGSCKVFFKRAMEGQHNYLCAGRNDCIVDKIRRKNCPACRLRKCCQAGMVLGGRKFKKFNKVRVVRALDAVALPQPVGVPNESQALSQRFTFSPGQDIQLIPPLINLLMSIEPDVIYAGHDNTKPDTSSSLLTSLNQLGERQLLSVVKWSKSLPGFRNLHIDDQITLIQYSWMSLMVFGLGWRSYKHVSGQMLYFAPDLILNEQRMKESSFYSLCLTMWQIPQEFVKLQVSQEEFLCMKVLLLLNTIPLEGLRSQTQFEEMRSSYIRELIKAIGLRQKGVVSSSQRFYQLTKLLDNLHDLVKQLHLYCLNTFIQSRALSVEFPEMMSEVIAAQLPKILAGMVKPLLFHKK

[3] = biological target: T3, Androgen receptor (Homo sapiens, UniProt P10275); test: biochemical
T3 sequence (P10275 whole entry): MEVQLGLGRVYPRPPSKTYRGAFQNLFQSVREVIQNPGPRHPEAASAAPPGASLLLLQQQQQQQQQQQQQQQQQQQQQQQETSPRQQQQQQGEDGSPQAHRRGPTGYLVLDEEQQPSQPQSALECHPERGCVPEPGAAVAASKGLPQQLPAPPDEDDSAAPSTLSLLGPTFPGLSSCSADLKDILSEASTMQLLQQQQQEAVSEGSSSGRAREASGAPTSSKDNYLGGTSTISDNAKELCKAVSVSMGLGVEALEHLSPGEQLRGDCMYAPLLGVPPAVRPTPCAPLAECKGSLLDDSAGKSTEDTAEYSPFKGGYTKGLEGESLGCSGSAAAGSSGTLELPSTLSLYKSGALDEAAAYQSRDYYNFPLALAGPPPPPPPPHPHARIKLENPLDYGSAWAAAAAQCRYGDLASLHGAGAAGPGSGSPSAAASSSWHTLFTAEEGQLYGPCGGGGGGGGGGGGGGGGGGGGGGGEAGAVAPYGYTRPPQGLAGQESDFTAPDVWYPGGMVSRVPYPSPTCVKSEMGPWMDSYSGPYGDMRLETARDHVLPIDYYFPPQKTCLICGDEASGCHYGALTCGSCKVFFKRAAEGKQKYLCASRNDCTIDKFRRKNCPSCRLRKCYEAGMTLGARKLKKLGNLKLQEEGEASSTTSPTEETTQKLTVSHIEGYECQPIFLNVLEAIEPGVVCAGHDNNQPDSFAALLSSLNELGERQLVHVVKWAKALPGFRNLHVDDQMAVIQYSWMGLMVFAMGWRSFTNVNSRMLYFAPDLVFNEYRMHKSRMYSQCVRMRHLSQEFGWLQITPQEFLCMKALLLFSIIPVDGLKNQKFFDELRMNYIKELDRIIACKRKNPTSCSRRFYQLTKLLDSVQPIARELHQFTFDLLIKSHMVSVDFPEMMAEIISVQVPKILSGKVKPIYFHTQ
Description: Displacement of [3H]-methyltrienolone from human androgen receptor expressed in HEK293 cells by scintillation counting based radioligand competition binding assay

| pKi [1] | pKi [2] | pKi [3] | SMILES |
| --- | --- | --- | --- |
| 6.02 | 6.98 | 6.45 | CS(=O)(=O)Nc1cccc2cc[nH]c12 |
|  | 7.07 | 6.40 | COc1ccccc1-c1c[nH]c2c(NS(C)(=O)=O)cccc12 |
| 5.37 | 5.40 | 6.16 | COc1cc(F)ccc1-c1c(Cc2ccccc2)[nH]c2c(NS(C)(=O)=O)cc(C(C)C)cc12 |
| 5.41 | 7.35 | 6.04 | COc1ccc(F)cc1-c1c(-c2ccccc2)[nH]c2c(NS(C)(=O)=O)cccc12 |
| 7.42 | 7.65 | 5.95 | COc1cc(NS(C)(=O)=O)c2[nH]c(C)c(-c3cc(F)ccc3OC)c2c1 |
| 7.35 | 7.69 | 5.95 | COc1cc(F)ccc1-c1c(C)[nH]c2c(NS(C)(=O)=O)cc(F)cc12 |
| 5.41 | 5.40 | 5.39 | COc1cc(NS(C)(=O)=O)c2[nH]c(C)c(-c3ccccc3)c2c1 |
| 8.68 | 8.26 | 7.04 | CS(=O)(=O)Nc1cccc2c(-c3cccc(Cl)c3)c[nH]c12 |
| 5.41 | 6.60 | 6.64 | COc1cc(F)ccc1-c1c(CN(C)Cc2ccccc2)[nH]c2c(NS(C)(=O)=O)cc(C(C)(C)C)cc12 |
| 6.65 | 7.54 | 6.30 | CS(=O)(=O)Nc1cccc2c(-c3ccc(F)cc3)c[nH]c12 |
| 5.35 | 6.63 | 6.16 | COc1ccc(Cl)cc1-c1c[nH]c2c(NS(C)(=O)=O)cccc12 |
| 5.80 | 7.19 | 6.63 | COc1cc(F)ccc1-c1c(CN(C)Cc2ccccc2)[nH]c2c(NS(C)(=O)=O)cc(C(C)C)cc12 |
| 5.67 | 5.38 | 5.38 | COc1cc(F)ccc1-c1c(CN(C)Cc2ccccc2)[nH]c2c(N)cc(F)cc12 |
